Assay results from publication PMC2912288 (International journal of pharmaceutics, 2010).
pKi: −log10 of the molar value. “Also recorded” adds a separate entry of the source. Where two headings read alike, the source gives them in different places.

Experiments:
[1] = molecular target: T1, human apical sodium-dependent bile acid transporter (ASBT) (Homo sapiens, UniProt Q12908); experiment: Inhibition of taurocholate uptake by prodrugs in ASBT-MDCK monolayers; type: cell-based; conditions: taurocholate uptake into ASBT-MDCK monolayers, 10 min
T1 sequence (Q12908 1-348): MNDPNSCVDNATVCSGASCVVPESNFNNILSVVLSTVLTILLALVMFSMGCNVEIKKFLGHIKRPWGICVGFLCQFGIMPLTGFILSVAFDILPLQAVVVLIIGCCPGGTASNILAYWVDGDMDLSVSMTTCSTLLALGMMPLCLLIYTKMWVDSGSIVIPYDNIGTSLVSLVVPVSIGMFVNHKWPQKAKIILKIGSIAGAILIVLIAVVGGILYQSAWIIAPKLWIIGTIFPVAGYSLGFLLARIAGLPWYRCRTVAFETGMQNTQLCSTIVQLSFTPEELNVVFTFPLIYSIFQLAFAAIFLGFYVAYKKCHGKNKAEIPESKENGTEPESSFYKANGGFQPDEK

[2] = of the drug moiety; source not stated; cited from earlier work
[3] = ref Porter and Kaplan, 2009; cited from earlier work
[4] = molecular target: T1, human apical sodium-dependent bile acid transporter (ASBT); experiment: Uptake of prodrug into ASBT-MDCK monolayers
[5] = molecular target: Pept1; conditions: CHO-PepT1; ref Han et al., 1998; cited from earlier work
[6] = ref Burnette and de, 1994; cited from earlier work
[7] = molecular target: Pept1; conditions: Xenopus laevis oocytes; ref Balimane et al., 1998; cited from earlier work
[8] = prodrug uptake into ASBT-MDCK, 1–500 μM, 10 min, 37°C, mean (±SEM) of three measurements

Q: With CC(C(=O)O)c1cccc(C(=O)c2ccccc2)c1 (stereo not drawn) [ketoprofen, Ketoprofen] as the compound, how does the “ASBT inhibition (result in words)” value [1] read?
A: Neither ketoprofen nor niacin was ASBT inhibitor; also recorded: not reduced

Q: Which “ASBT inhibition (result in words)” value [1] does the source give for O=C(O)c1cccnc1 [niacin, nicotinic acid] here?
A: Neither ketoprofen nor niacin was ASBT inhibitor; also recorded: not reduced

Q: What about the “Log P” value [2] of the same compound?
A: 0.25

Q: What about the half-life [3] of the same compound?
A: 20 to 45 min

Q: For C[C@H](CCC(=O)NCCS(=O)(=O)O)[C@H]1CC[C@H]2[C@@H]3[C@H](O)C[C@@H]4C[C@H](O)CC[C@]4(C)[C@H]3C[C@H](O)[C@]12C [taurocholate, Taurocholic acid], which Kt ([4]; taurocholate, obtained from a pooled data analysis approach) is on record?
A: 5.03 µM

Q: With CC(C)[C@H](N)C(=O)OCCOCn1cnc2c(=O)[nH]c(N)nc21 [valacyclovir] as the compound, how does the pKi [5] read?
A: 2.96

Q: What about the “increase of acyclovir bioavailability” value [6] of the same compound?
A: 3 fold

Q: What about the pKi [7] of the same compound?
A: 2.39

Q: With CDCA-lysine-ketoprofen as the compound, how does the “transport capacity relative to the capacity for taurocholate” value ([4]; from normJmax) read?
A: 1.87 fold

Q: What about the Kt [4, 8] of the same compound?
A: 50.8 (±23.2) μM

Q: Which results are given for CDCA-lysine-niacin?
A: ASBT's capacity to transport, relative to that of taurocholate ([4]; from normJmax): about 9%; Kt [4, 8]: 8.22 (±3.63) μM
